Consider 22 compounds from US12384776B2, “Compounds and uses thereof” (Foghorn Therapeutics Inc., priority 2019, dated 2025).

pIC50: −log10 of the molar value. A value given as a limit tells only on which side of the number the result lay.

One experiment deals with BRD9 bromodomain (Homo sapiens (Human), UniProt Q9H8M2). Nature of the experiment: BRD9 bromodomain TR-FRET competition binding assay. The method, then:
Procedure: His-Flag-BRD9 (P133-K239; Swiss Prot Q9H8M2; SEQ ID NO:1 mgsshhhhhhenlyfq/gdykddddkgslevlfqg/[…] […]) was cloned, expressed, purified, and then treated with TEV protease. Cleaved His tag was removed by purification. The binding of a biotinylated small molecule ligand of BRD9 was assessed via the LANCE® TR-FRET platform (PerkinElmer), and the compounds were assayed for inhibitory activity against this interaction.
Results: A mixture of biotinylated-ligand and SureLight™ Allophycocyanin-Streptavidin (APC-SA, PerkinElmer AD0201) in 50 mM HEPES (pH 7.4), 50 mM NaCl, 1 mM TCEP (pH 7), 0.01% (v/v) Tween-20, 0.01% (w/v) bovine serum albumin was added to a white 384-well PerkinElmer Proxiplate Plus plate. DMSO or 3-fold serially diluted compounds were then added to the Proxiplate followed by addition of Flag-BRD9. After a 10-minute incubation at room temperature, Eu—W1024 anti-FLAG (PerkinElmer, AD0273) was added. The final reaction mixture that contained 3.75 nM biotinylated ligand, 3 nM Flag-BRD9, 7.5 nM SureLight™ Allophycocyanin-Streptavidin, and 0.2 nM Eu—W1024 anti-FLAG was incubated at room temperature for 90 minutes.
The plates were then read on a PerkinElmer Envision plate reader to determine the ratio of emission at 665 nm over 615 nm. […]
(In general: In TR-FRET formats the signal depends on donor and acceptor labels being close together.)

In experiment [1] the target is Nanoluciferase-BRD9 fusion protein (3×FLAG-NLuc-BRD9) in SYO-1 cells (Homo sapiens (Human), UniProt Q9H8M2). Nature of the experiment: SYO1 BRD9 NanoLuc degradation assay. Particulars: SYO-1 cells, 6 hours, Table 6A. The experiment is classed as cell-based. The procedure, abridged: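 Degradation read as loss of NLuc signal after 6 h compound exposure (1 μM top final, 3-fold steps, 10 points, duplicates) in SYO-1 cells stably carrying 3×FLAG-NLuc-BRD9. Signal normalised between DMSO-treated cells and cells given 1 μM of a known BRD9 degrader.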
Sequence of Nanoluciferase-BRD9 fusion protein (3×FLAG-NLuc-BRD9) in SYO-1 cells (Q9H8M2 whole entry, the tested form may be a part): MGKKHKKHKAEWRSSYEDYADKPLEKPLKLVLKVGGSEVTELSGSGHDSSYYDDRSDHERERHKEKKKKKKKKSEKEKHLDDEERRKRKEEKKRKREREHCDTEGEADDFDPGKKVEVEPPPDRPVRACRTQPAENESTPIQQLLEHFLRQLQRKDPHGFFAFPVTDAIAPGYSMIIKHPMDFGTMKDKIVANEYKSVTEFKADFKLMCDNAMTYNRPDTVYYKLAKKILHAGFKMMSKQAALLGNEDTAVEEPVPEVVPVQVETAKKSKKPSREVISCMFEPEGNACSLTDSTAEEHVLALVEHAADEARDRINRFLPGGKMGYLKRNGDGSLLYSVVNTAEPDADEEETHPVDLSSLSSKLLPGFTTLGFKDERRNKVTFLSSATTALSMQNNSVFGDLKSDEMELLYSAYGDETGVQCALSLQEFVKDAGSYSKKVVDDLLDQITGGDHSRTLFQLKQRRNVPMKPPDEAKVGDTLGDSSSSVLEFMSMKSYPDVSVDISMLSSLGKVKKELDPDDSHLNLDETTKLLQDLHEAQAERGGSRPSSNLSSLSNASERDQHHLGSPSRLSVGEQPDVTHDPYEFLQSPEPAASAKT

Sequence of BRD9 bromodomain (Q9H8M2 133-239): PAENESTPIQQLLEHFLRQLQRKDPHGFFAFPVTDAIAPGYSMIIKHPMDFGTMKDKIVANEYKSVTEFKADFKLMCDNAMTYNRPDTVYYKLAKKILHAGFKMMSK

For `CNC(=O)N1CCc2c(-c3cc(OC)c(CN4CC(NC(=O)CCCCCOc5cccc6c5C(=O)N(C5CCC(=O)NC5=O)C6=O)C4)cc3OC)cn(C)c(=O)c2C1` (stereo not drawn) [Compound D15, 5-(4-[[3-(6-[[2-(2,6-Dioxopiperidin-3-yl)-1,3-dioxoisoindol-4-yl]oxy]hexanamido)azetidin-1-yl]methyl]-2,5-dimethoxyphenyl)-N,7-dimethyl-8-oxo-3,4-dihydro-1H-2,7-naphthyridine-2-carboxamide formic acid], the pIC50 (usually the negative decadic logarithm of the IC50, by convention in mol/L) on BRD9 bromodomain was less than 8.00; in experiment [1], less than 7.00.

For `COc1cc(-c2cn(C)c(=O)c3c2CCN(C(=O)NCCN(C)CCOCCOc2cccc4c2C(=O)N(C2CCC(=O)NC2=O)C4=O)C3)cc(OC)c1CN(C)C` (stereo not drawn) [Compound D30, 5-[4-[(dimethylamino)methyl]-3,5-dimethoxyphenyl]-N-(2-[[2-(2-[[2-(2,6-dioxopiperidin-3-yl)-1,3-dioxoisoindol-4-yl]oxy]ethoxy)ethyl](methyl)amino]ethyl)-7-methyl-8-oxo-3,4-dihydro-1H-2,7-naphthyridine-2-carboxamide formic acid], the pIC50 was less than 7.00 at BRD9 bromodomain and less than 6.00 in experiment [1].

As for `CCCCNS(=O)(=O)N1CCc2c(-c3cc(OC)c(CN(C)C)c(OC)c3)cn(C)c(=O)c2C1` [Compound B19, N-butyl-5-{4-[(dimethylamino)methyl]-3,5-dimethoxyphenyl}-7-methyl-8-oxo-1,2,3,4,7,8-hexahydro-2,7-naphthyridine-2-sulfonamide], on BRD9 bromodomain, the pIC50 is less than 8.00.

`COc1cc(-c2cn(C)c(=O)c3c2CN(C(=O)NCCOCCNc2cccc4c2C(=O)N(C2CCC(=O)NC2=O)C4=O)CC3)cc(OC)c1CN(C)C` (stereo not drawn) [Compound D27, 8-[4-[(dimethylamino)methyl]-3,5-dimethoxyphenyl]-N-[2-(2-[[2-(2,6-dioxopiperidin-3-yl)-1,3-dioxoisoindol-4-yl]amino]ethoxy)ethyl]-6-methyl-5-oxo-3,4-dihydro-1H-2,6-naphthyridine-2-carboxamide formic acid] had a pIC50 on BRD9 bromodomain of less than 7.00.

As for `CCC(=O)N1CCc2c(-c3cc(OC)c(CN(C)C)c(OC)c3)cn(C)c(=O)c2C1` [Compound B12], the negative-log IC50 (pIC50) at BRD9 bromodomain was less than 6.00.

At BRD9 bromodomain, `COc1cc(-c2cn(C)c(=O)c3c2CCNC3)cc(OC)c1CN(C)C` [Compound B17, 4-[4-[(dimethylamino)methyl]-3,5-dimethoxyphenyl]-2-methyl-1,2,5,6,7,8-hexahydro-2,7-naphthyridin-1-one] had a negative-log IC50 (pIC50) of less than 6.00.

On to `COc1cc(-c2cn(C)c(=O)c3c2CCN(C(=O)NCCOCCOCCOCC(=O)N[C@@H](C(=O)N2C[C@@H](O)C[C@@H]2C(=O)NCc2ccc(-c4scnc4C)cc2)C(C)(C)C)C3)cc(OC)c1CN(C)C` [Compound D35, (2R,4S)-1-[(2R)-2-[2-(2-[2-[2-(5-[4-[(dimethylamino)methyl]-3,5-dimethoxyphenyl]-7-methyl-8-oxo-3,4-dihydro-1H-2,7-naphthyridine-2-carbonylamino)ethoxy]ethoxy]ethoxy)acetamido]-3,3-dimethylbutanoyl]-4-hydroxy-N-[[4-(4-methyl-1,3-thiazol-5-yl)phenyl]methyl]pyrrolidine-2-carboxamide], for which the pIC50 on BRD9 bromodomain was less than 8.00.

`CNC(=O)C1Cc2c(c(-c3cc(OC)c(CN(C)C)c(OC)c3)cn(C)c2=O)CN1` (stereo not drawn) [Compound B3, 8-[4-[(dimethylamino)methyl]-3,5-dimethoxyphenyl]-N,6-dimethyl-5-oxo-1,2,3,4,5,6-hexahydro-2,6-naphthyridine-3-carboxamide]: the pIC50 on BRD9 bromodomain was less than 6.00.

The compound `CCCCNC(=O)N1CCc2c(-c3cc(OC)c(CN(C)C)c(OC)c3)cn(C)c(=O)c2C1` [Compound B7, N-butyl-5-(4-((dimethylamino)methyl)-3,5-dimethoxyphenyl)-7-methyl-8-oxo-3,4,7,8-tetrahydro-2,7-naphthyridine-2 (1H)-carboxamide] had a pIC50 at BRD9 bromodomain of more than 8.00.

On BRD9 bromodomain, `COc1cc(-c2cn(C)c(=O)c3c2CCN(C(N)=O)C3)cc(OC)c1CN(C)C` [Compound B13, 5-[4-[(dimethylamino)methyl]-3,5-dimethoxyphenyl]-7-methyl-8-oxo-1,2,3,4,7,8-hexahydro-2,7-naphthyridine-2-carboxamide] showed a pIC50 of less than 8.00.

`CCCCNC(=S)N1CCc2c(-c3cc(OC)c(CN(C)C)c(OC)c3)cn(C)c(=O)c2C1` [Compound B20, N-butyl-5-(4-((dimethylamino)methyl)-3,5-dimethoxyphenyl)-7-methyl-8-oxo-3,4,7,8-tetrahydro-2,7-naphthyridine-2 (1H)-carbothioamide] showed a pIC50 on BRD9 bromodomain of less than 8.00.

As to `COc1cc(-c2cn(C)c(=O)c3c2CCN(C(=O)NC2CCN(CCOc4ccc5c(c4)C(=O)N(C4CCC(=O)NC4=O)C5=O)CC2)C3)cc(OC)c1CN(C)C` (stereo not drawn) [Compound D26, 5-[4-[(dimethylamino)methyl]-3,5-dimethoxyphenyl]-N-[1-(2-[[2-(2,6-dioxopiperidin-3-yl)-1,3-dioxoisoindol-5-yl]oxy]ethyl)piperidin-4-yl]-7-methyl-8-oxo-3,4-dihydro-1H-2,7-naphthyridine-2-carboxamide formic acid], the pIC50 on BRD9 bromodomain was more than 8.00.

On BRD9 bromodomain, `CNC(=O)N1CCc2c(-c3cc(OC)c(CN(C)C)c(OC)c3)cn(C)c(=O)c2C1` [Compound B9, 5-(4-((dimethylamino)methyl)-3,5-dimethoxyphenyl)-N,7-dimethyl-8-oxo-3,4,7,8-tetrahydro-2,7-naphthyridine-2 (1H)-carboxamide] showed a pIC50 of more than 8.00.

The compound `COc1cc(-c2cn(C)c(=O)c3c2CCN(C(=O)NCCOCCOCC(=O)N[C@H](C(=O)N2C[C@H](O)C[C@H]2C(=O)NCc2ccc(-c4scnc4C)cc2)C(C)(C)C)C3)cc(OC)c1CN(C)C` [Compound D34, (2S,4R)-1-[(2S)-2-(2-[2-[2-(5-[4-[(dimethylamino)methyl]-3,5-dimethoxyphenyl]-7-methyl-8-oxo-3,4-dihydro-1H-2,7-naphthyridine-2-carbonylamino)ethoxy]ethoxy]acetamido)-3,3-dimethylbutanoyl]-4-hydroxy-N-[[4-(4-methyl-1,3-thiazol-5-yl)phenyl]methyl]pyrrolidine-2-carboxamide formic acid] had a pIC50 at BRD9 bromodomain of less than 8.00.

In turn, `CCNC(=O)N1CCc2c(-c3cc(OC)c(CN(C)C)c(OC)c3)cn(C)c(=O)c2C1` [Compound B5, 5-(4-((dimethylamino)methyl)-3,5-dimethoxyphenyl)-N-ethyl-7-methyl-8-oxo-3,4,7,8-tetrahydro-2,7-naphthyridine-2 (1H)-carboxamide] gave a pIC50 at BRD9 bromodomain of more than 8.00.

On BRD9 bromodomain, `COc1cc(-c2cn(C)c(=O)c3c2CNC(C(=O)O)C3)cc(OC)c1CN(C)C` (stereo not drawn) [Compound B2, 8-[4-[(dimethylamino)methyl]-3,5-dimethoxyphenyl]-6-methyl-5-oxo-1,2,3,4,5,6-hexahydro-2,6-naphthyridine-3-carboxylic acid] had a pIC50 of less than 6.00.

`COc1cc(-c2cn(C)c(=O)c3c2CNC(C(N)=O)C3)cc(OC)c1CN(C)C` (stereo not drawn) [Compound B4, 8-[4-[(dimethylamino)methyl]-3,5-dimethoxyphenyl]-6-methyl-5-oxo-1,2,3,4,5,6-hexahydro-2,6-naphthyridine-3-carboxamide] had a pIC50 at BRD9 bromodomain of less than 6.00.

`COc1cc(-c2cn(C)c(=O)c3c2CCN(C(=O)N(C)C)C3)cc(OC)c1CN(C)C` [Compound B6, 5-(4-((dimethylamino)methyl)-3,5-dimethoxyphenyl)-N,N,7-trimethyl-8-oxo-3,4,7,8-tetrahydro-2,7-naphthyridine-2 (1H)-carboxamide] gave a pIC50 at BRD9 bromodomain of less than 7.00.

`COc1cc(-c2cn(C)c(=O)c3c2CCN(CCO)C3)cc(OC)c1CN(C)C` [Compound B10, 4-[4-[(dimethylamino)methyl]-3,5-dimethoxyphenyl]-7-(2-hydroxyethyl)-2-methyl-1,2,5,6,7,8-hexahydro-2,7-naphthyridin-1-one] showed a pIC50 on BRD9 bromodomain of less than 6.00.

`COc1cc(-c2cn(C)c(=O)c3c2CCN(C(C)=O)C3)cc(OC)c1CN(C)C` [Compound B14, 7-acetyl-4-[4-[(dimethylamino)methyl]-3,5-dimethoxyphenyl]-2-methyl-1,2,5,6,7,8-hexahydro-2,7-naphthyridin-1-one]: at BRD9 bromodomain, the pIC50 was less than 6.00.

Take `CCOC(=O)N1CCc2c(-c3cc(OC)c(CN(C)C)c(OC)c3)cn(C)c(=O)c2C1` [Compound B11, ethyl 5-[4-[(dimethylamino)methyl]-3,5-dimethoxyphenyl]-7-methyl-8-oxo-1,2,3,4,7,8-hexahydro-2,7-naphthyridine-2-carboxylate]: the pIC50 at BRD9 bromodomain was less than 6.00.

The compound `COc1cc(-c2cn(C)c(=O)c3c2CCN(C)C3)cc(OC)c1CN(C)C` [Compound B16, 4-[4-[(dimethylamino)methyl]-3,5-dimethoxyphenyl]-2,7-dimethyl-1,2,5,6,7,8-hexahydro-2,7-naphthyridin-1-one formic acid] had a pIC50 on BRD9 bromodomain of less than 6.00.
